System: Transport facilitation protein genes
Assay: DNA chip mRNA expression in yeast, transport facilitation protein genes (Table 5)
Type: cell-based, Saccharomyces cerevisiae S288C
Procedure, shortened: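 First, S288C yeast grown in YPD at 25° C. are dosed in log phase with one toxicant (growth-inhibiting, not lethal) for 2 h. Next, total RNA is extracted and poly(A) mRNA isolated and reverse-transcribed with Cy3/Cy5-dUTP. Finally, whole-genome chip fluorescence is read relative to unexposed cells.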

`CCCCC[C@H](O)CC(=O)CCc1ccc(O)c(OC)c1` [(13), gingerol] was tested, and the “The level of expressed mRNA in the presence of chemical substance/The level of expressed mRNA in the absence of chemical substance” value (yeast gene YHL036W) was 1.5, the “The level of expressed mRNA in the presence of chemical substance/The level of expressed mRNA in the absence of chemical substance” value (yeast gene YHL040C) was 2.0 and the “The level of expressed mRNA in the presence of chemical substance/The level of expressed mRNA in the absence of chemical substance” value (yeast gene YHL047C) was 3.8. For the same compound, the “The level of expressed mRNA in the presence of chemical substance/The level of expressed mRNA in the absence of chemical substance” value (yeast gene YHR026W) was 0.7, the “The level of expressed mRNA in the presence of chemical substance/The level of expressed mRNA in the absence of chemical substance” value (yeast gene YHR048W) was 1.1 and the “The level of expressed mRNA in the presence of chemical substance/The level of expressed mRNA in the absence of chemical substance” value (yeast gene YHR092C) was 0.5. The “The level of expressed mRNA in the presence of chemical substance/The level of expressed mRNA in the absence of chemical substance” value (yeast gene YHR094C) was 0.7, the “The level of expressed mRNA in the presence of chemical substance/The level of expressed mRNA in the absence of chemical substance” value (yeast gene YHR175W) was 1.2 and the “The level of expressed mRNA in the presence of chemical substance/The level of expressed mRNA in the absence of chemical substance” value (yeast gene YIL006W) was 0.8. For the same compound, the “The level of expressed mRNA in the presence of chemical substance/The level of expressed mRNA in the absence of chemical substance” value (yeast gene YIL022W) was 1.2, the “The level of expressed mRNA in the presence of chemical substance/The level of expressed mRNA in the absence of chemical substance” value (yeast gene YIL056W) was 1.5 and the “The level of expressed mRNA in the presence of chemical substance/The level of expressed mRNA in the absence of chemical substance” value (yeast gene YIL088C) was 1.5. For the same compound, the “The level of expressed mRNA in the presence of chemical substance/The level of expressed mRNA in the absence of chemical substance” value (yeast gene YJL212C) was 1.0, the “The level of expressed mRNA in the presence of chemical substance/The level of expressed mRNA in the absence of chemical substance” value (yeast gene YJR077C) was 0.9 and the “The level of expressed mRNA in the presence of chemical substance/The level of expressed mRNA in the absence of chemical substance” value (yeast gene YJR095W) was 0.8. The “The level of expressed mRNA in the presence of chemical substance/The level of expressed mRNA in the absence of chemical substance” value (yeast gene YJR121W) was 1.0, the “The level of expressed mRNA in the presence of chemical substance/The level of expressed mRNA in the absence of chemical substance” value (yeast gene YKL016C) was 1.3 and the “The level of expressed mRNA in the presence of chemical substance/The level of expressed mRNA in the absence of chemical substance” value (yeast gene YKL188C) was 1.2. The “The level of expressed mRNA in the presence of chemical substance/The level of expressed mRNA in the absence of chemical substance” value (yeast gene YKL217W) was 1.2, the “The level of expressed mRNA in the presence of chemical substance/The level of expressed mRNA in the absence of chemical substance” value (yeast gene YKL221W) was 1.6 and the “The level of expressed mRNA in the presence of chemical substance/The level of expressed mRNA in the absence of chemical substance” value (yeast gene YKR039W) was 1.3. The “The level of expressed mRNA in the presence of chemical substance/The level of expressed mRNA in the absence of chemical substance” value (yeast gene YKR067W) was 1.3, the “The level of expressed mRNA in the presence of chemical substance/The level of expressed mRNA in the absence of chemical substance” value (yeast gene YKR105C) was 2.5 and the “The level of expressed mRNA in the presence of chemical substance/The level of expressed mRNA in the absence of chemical substance” value (yeast gene YLL055W) was 1.5. The “The level of expressed mRNA in the presence of chemical substance/The level of expressed mRNA in the absence of chemical substance” value (yeast gene YLR081W) was 0.6, the “The level of expressed mRNA in the presence of chemical substance/The level of expressed mRNA in the absence of chemical substance” value (yeast gene YLR092W) was 1.8 and the “The level of expressed mRNA in the presence of chemical substance/The level of expressed mRNA in the absence of chemical substance” value (yeast gene YLR295C) was 0.8. For the same compound, the “The level of expressed mRNA in the presence of chemical substance/The level of expressed mRNA in the absence of chemical substance” value (yeast gene YLR348C) was 1.9, the “The level of expressed mRNA in the presence of chemical substance/The level of expressed mRNA in the absence of chemical substance” value (yeast gene YLR378C) was 1.6 and the “The level of expressed mRNA in the presence of chemical substance/The level of expressed mRNA in the absence of chemical substance” value (yeast gene YML116W) was 0.8. For the same compound, the “The level of expressed mRNA in the presence of chemical substance/The level of expressed mRNA in the absence of chemical substance” value (yeast gene YMR162C) was 0.9, the “The level of expressed mRNA in the presence of chemical substance/The level of expressed mRNA in the absence of chemical substance” value (yeast gene YNL055C) was 2.4 and the “The level of expressed mRNA in the presence of chemical substance/The level of expressed mRNA in the absence of chemical substance” value (yeast gene YNR072W) was 1.5. The “The level of expressed mRNA in the presence of chemical substance/The level of expressed mRNA in the absence of chemical substance” value (yeast gene YOL119C) was 1.6, the “The level of expressed mRNA in the presence of chemical substance/The level of expressed mRNA in the absence of chemical substance” value (yeast gene YOL156W) was 1.7 and the “The level of expressed mRNA in the presence of chemical substance/The level of expressed mRNA in the absence of chemical substance” value (yeast gene YOL158C) was 1.4. For the same compound, the “The level of expressed mRNA in the presence of chemical substance/The level of expressed mRNA in the absence of chemical substance” value (yeast gene YOL163W) was 2.4, the “The level of expressed mRNA in the presence of chemical substance/The level of expressed mRNA in the absence of chemical substance” value (yeast gene YOR035C) was 2.5 and the “The level of expressed mRNA in the presence of chemical substance/The level of expressed mRNA in the absence of chemical substance” value (yeast gene YOR130C) was 2.1. For the same compound, the “The level of expressed mRNA in the presence of chemical substance/The level of expressed mRNA in the absence of chemical substance” value (yeast gene YOR153W) was 11.8, the “The level of expressed mRNA in the presence of chemical substance/The level of expressed mRNA in the absence of chemical substance” value (yeast gene YOR270C) was 1.3 and the “The level of expressed mRNA in the presence of chemical substance/The level of expressed mRNA in the absence of chemical substance” value (yeast gene YOR273C) was 2.6. The “The level of expressed mRNA in the presence of chemical substance/The level of expressed mRNA in the absence of chemical substance” value (yeast gene YOR316C) was 1.6, the “The level of expressed mRNA in the presence of chemical substance/The level of expressed mRNA in the absence of chemical substance” value (yeast gene YOR332W) was 2.2 and the “The level of expressed mRNA in the presence of chemical substance/The level of expressed mRNA in the absence of chemical substance” value (yeast gene YPL036W) was 0.3. For the same compound, the “The level of expressed mRNA in the presence of chemical substance/The level of expressed mRNA in the absence of chemical substance” value (yeast gene YPL134C) was 1.0, the “The level of expressed mRNA in the presence of chemical substance/The level of expressed mRNA in the absence of chemical substance” value (yeast gene YPL265W) was 1.1 and the “The level of expressed mRNA in the presence of chemical substance/The level of expressed mRNA in the absence of chemical substance” value (yeast gene YPL271W) was 1.2. The “The level of expressed mRNA in the presence of chemical substance/The level of expressed mRNA in the absence of chemical substance” value (yeast gene YPR124W) was 0.6 and the “The level of expressed mRNA in the presence of chemical substance/The level of expressed mRNA in the absence of chemical substance” value (yeast gene YPR194C) was 1.0.
